According to the Kinase Knowledgebase extract (Sharma et al. 2016):
pIC50: −log10 of the molar value.

molecular target: MAPK14 (UniProt Q16539); experiment: Inhibition of MAPK14 Kinase Activity
Sequence (Q16539 whole entry, looked up): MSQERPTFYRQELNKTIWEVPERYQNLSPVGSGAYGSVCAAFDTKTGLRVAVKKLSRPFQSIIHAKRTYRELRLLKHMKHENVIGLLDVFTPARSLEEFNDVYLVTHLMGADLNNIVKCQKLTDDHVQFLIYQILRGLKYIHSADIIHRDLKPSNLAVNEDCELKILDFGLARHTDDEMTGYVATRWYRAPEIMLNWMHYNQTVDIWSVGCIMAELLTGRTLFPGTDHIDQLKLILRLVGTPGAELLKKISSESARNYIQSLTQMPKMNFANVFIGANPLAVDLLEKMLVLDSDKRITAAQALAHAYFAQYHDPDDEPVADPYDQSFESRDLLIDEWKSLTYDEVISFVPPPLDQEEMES

Row | Structure (SMILES) | pIC50
1 | Cn1nc(C(C)(C)C)cc1NC(=O)Nc1ccc(OC2CCN(C(=O)c3ccccc3C(F)(F)F)CC2)cc1 | > 5.30
2 | Cn1nc(C(C)(C)C)cc1NC(=O)Nc1ccc(OC2CCN(C(=O)c3ccc(Cl)nc3)CC2)cc1 | > 5.30
3 | Cn1nc(C(C)(C)C)cc1NC(=O)Nc1ccc(OC2CCN(C(=O)c3ccsc3)CC2)cc1 | > 5.30
4 | Cn1nc(C(C)(C)C)cc1NC(=O)Nc1ccc(CN2CCN(C(=O)c3ccc(C(F)(F)F)cc3)CC2)cc1 | > 5.30
5 | Cc1cc(C(=O)N2CCC(Oc3cc(F)cc(NC(=O)Nc4cc(C(C)(C)C)nn4C)c3)CC2)c(C)[nH]1 | > 5.30
6 | Cn1nc(C(C)(C)C)cc1NC(=O)Nc1ccc(CN2CCN(C(=O)c3ccccc3)CC2)cc1 | > 5.30
7 | Cn1nc(C(C)(C)C)cc1NC(=O)Nc1cccc(OC2CCN(C(=O)c3ccccc3Cl)CC2)c1 | > 5.30
8 | Cn1nc(C(C)(C)C)cc1NC(=O)Nc1cc(F)cc(OC2CCN(C(=O)c3c(Cl)cccc3Cl)CC2)c1 | > 5.30
9 | CO[C@H](C)C(=O)N1CCN(c2ccc(NC(=O)Nc3cc(C(C)(C)C)nn3-c3ccc(C)cc3)cc2)CC1 | > 5.30
10 | Cc1ccc(-n2nc(C(C)(C)C)cc2NC(=O)Nc2ccc(OCCC3CCN(C(=O)c4c(Cl)cccc4Cl)CC3)c3ccccc23)cc1 | > 5.30
11 | Cn1nc(C(C)(C)C)cc1NC(=O)Nc1cc(F)cc(OC2CCN(C(=O)c3cccc4cc[nH]c34)CC2)c1 | > 5.30
12 | Cn1nc(C(C)(C)C)cc1NC(=O)Nc1cc(F)cc(OC2CCN(C(=O)C3CC3(Cl)Cl)CC2)c1 (stereo not given) | > 5.30
13 | Cn1nc(C(C)(C)C)cc1NC(=O)Nc1ccc(CN2CCN(C(=O)c3ccc(F)cc3F)CC2)cc1 | > 5.30
14 | CCn1nc(C(C)(C)C)cc1NC(=O)Nc1ccc(CN2CCN(C(=O)c3ccc(F)cc3F)CC2)cc1F | > 5.30
15 | Cn1nc(C(C)(C)C)cc1NC(=O)Nc1cc(F)cc(OC2CCN(C(=O)C3(C)CC3(Cl)Cl)CC2)c1 (stereo not given) | > 5.30
16 | Cc1ccc(-n2nc(C(C)(C)C)cc2NC(=O)Nc2ccc(N3CCN(C(N)=O)CC3)cc2)cc1 | > 5.30
17 | Cn1nc(C(C)(C)C)cc1NC(=O)Nc1ccc(OC2CCN(C(=O)c3ccncc3)CC2)cc1 | > 5.30
18 | Cc1ccc(-n2nc(C(C)(C)C)cc2NC(=O)Nc2ccc(OC3CCN(C(=O)c4c(Cl)cccc4Cl)CC3)c3ccccc23)cc1 | > 5.30
19 | Cn1nc(C(C)(C)C)cc1NC(=O)Nc1cc(F)cc(OC2CCN(C(=O)c3ccccc3OC(F)(F)F)CC2)c1 | > 5.30
20 | Cn1nc(C(C)(C)C)cc1NC(=O)Nc1ccc(OC2CCN(C(=O)C3CC3)CC2)cc1 | > 5.30
21 | Cn1nc(C(C)(C)C)cc1NC(=O)Nc1cccc(OC2CCN(C(=O)c3c(Cl)cccc3Cl)CC2)c1 | > 5.30
22 | Cn1nc(C(C)(C)C)cc1NC(=O)Nc1ccc(CN2CCN(C(=O)c3ccc(F)cc3)CC2)cc1 | > 5.30

Row | Structure (SMILES) | pIC50
23 | Cn1nc(C(C)(C)C)cc1NC(=O)Nc1ccc(OC2CCN(C(=O)c3cn[nH]c3)CC2)cc1 | > 5.30
24 | Cn1nc(C(C)(C)C)cc1NC(=O)Nc1cccc(OC2CCN(C(=O)c3cc[nH]c3)CC2)c1 | > 5.30
25 | Cn1nc(C(C)(C)C)cc1NC(=O)Nc1ccc(OC2CCN(C(=O)c3cccnc3Cl)CC2)cc1 | > 5.30
26 | Cc1ccc(-n2nc(C(C)(C)C)cc2NC(=O)Nc2ccc(N3CCN(C(=O)C(C)(C)C)CC3)cc2)cc1 | 7.04
27 | CC(=O)N1CCN(Cc2ccc(NC(=O)Nc3cc(C(C)(C)C)nn3C)cc2)CC1 | > 5.30
28 | Cn1nc(C(C)(C)C)cc1NC(=O)Nc1cccc(OC2CCN(C(=O)c3c(F)cccc3F)CC2)c1 | > 5.30
29 | Cn1nc(C(C)(C)C)cc1NC(=O)Nc1ccc(OC2CCN(C(=O)C3CCCC3)CC2)cc1 | > 5.30
30 | Cn1nc(C(C)(C)C)cc1NC(=O)Nc1cc(F)cc(OC2CCN(C(=O)c3cccc(CN4CCOCC4)c3)CC2)c1 | > 5.30
31 | CCn1nc(C(C)(C)C)cc1NC(=O)Nc1ccc(CN2CCN(C(=O)c3c(F)cccc3F)CC2)cc1F | > 5.30
32 | Cn1nc(C(C)(C)C)cc1NC(=O)Nc1ccc(OC2CCN(C(=O)Oc3ccccc3C(F)(F)F)CC2)cc1 | > 5.30
33 | CC(C)n1nc(C(C)(C)C)cc1NC(=O)Nc1ccc(CN2CCN(C(=O)c3c(F)cccc3F)CC2)cc1 | > 5.30
34 | Cn1nc(C(C)(C)C)cc1NC(=O)Nc1ccc(OC2CCN(C(=O)c3c(Cl)cccc3Cl)CC2)cc1 | > 5.30
35 | Cc1ccc(-n2nc(C(C)(C)C)cc2NC(=O)NC2CCN(C(=O)c3ccc(S(C)(=O)=O)cc3)CC2)cc1 | > 5.30
36 | Cn1nc(C(C)(C)C)cc1NC(=O)Nc1ccc(CN2CCN(C(=O)c3ccc(F)cc3Cl)CC2)cc1 | > 5.30
37 | Cc1ccc(-n2nc(C(C)(C)C)cc2NC(=O)Nc2ccc(N3CCN(S(=O)(=O)C4CC4)CC3)cc2)cc1 | > 5.30
38 | Cn1nc(C(C)(C)C)cc1NC(=O)Nc1ccc(CN2CCN(C(=O)c3cc(Cl)sc3Cl)CC2)cc1 | > 5.30
39 | CC(C)(C)c1cc(NC(=O)Nc2ccc(OC3CCN(C(=O)c4c(Cl)cccc4Cl)CC3)cc2)[nH]n1 | > 5.30
40 | Cn1nc(C(C)(C)C)cc1NC(=O)Nc1ccc(CN2CCN(C(=O)c3ccccc3Cl)CC2)cc1 | > 5.30
41 | Cn1nc(C(C)(C)C)cc1NC(=O)Nc1ccc(N2CCN(C(=O)c3c(F)cccc3F)CC2)cc1 | > 5.30
42 | Cn1nc(C(C)(C)C)cc1NC(=O)Nc1cc(F)cc(OC2CCN(C(=O)c3ccccc3F)CC2)c1 | > 5.30
43 | Cn1nc(C(C)(C)C)cc1NC(=O)Nc1ccc(OC2CCN(C(=O)c3ccccc3Cl)CC2)cc1 | > 5.30
44 | Cn1nc(C(C)(C)C)cc1NC(=O)Nc1ccc(OC2CCN(C(=O)c3ccc(Cl)s3)CC2)cc1 | > 5.30

Row | Structure (SMILES) | pIC50
45 | Cc1ccc(-n2nc(C(C)(C)C)cc2NC(=O)Nc2cc(F)cc(OC3CCN(C(=O)c4sccc4C)CC3)c2)cc1 | > 5.30
46 | Cn1nc(C(C)(C)C)cc1NC(=O)Nc1ccc(CN2CCN(C(=O)c3c(Cl)cccc3Cl)CC2)cc1 | > 5.30
47 | Cn1nc(C(C)(C)C)cc1NC(=O)Nc1ccc(OC2CCN(S(C)(=O)=O)CC2)cc1 | > 5.30
48 | Cn1nc(C(C)(C)C)cc1NC(=O)Nc1cc(F)cc(OC2CCN(C(=O)C(C)(C)C)CC2)c1 | 7.72
49 | COc1ccc(C(=O)N2CCC(Oc3cc(F)cc(NC(=O)Nc4cc(C(C)(C)C)nn4C)c3)CC2)c(OC)n1 | > 5.30
50 | Cn1nc(C(C)(C)C)cc1NC(=O)Nc1cc(F)cc(OC2CCN(C(=O)c3ccccc3)CC2)c1 | > 5.30
51 | Cn1nc(C(C)(C)C)cc1NC(=O)Nc1cccc(OC2CCN(C(=O)c3ccc(F)cc3F)CC2)c1 | > 5.30
52 | Cn1nc(C(C)(C)C)cc1NC(=O)Nc1cc(F)cc(OC2CCN(C(=O)c3cccc4[nH]ccc34)CC2)c1 | > 5.30
53 | Cn1nc(C(C)(C)C)cc1NC(=O)Nc1ccc(CN2CCN(C(=O)c3cccnc3)CC2)cc1 | > 5.30
54 | CC(C)(C)c1cc(NC(=O)Nc2ccc(OC3CCN(C(=O)c4c(F)cccc4F)CC3)cc2)[nH]n1 | > 5.30
55 | Cn1nc(C(C)(C)C)cc1NC(=O)Nc1cc(F)cc(OC2CCN(C(=O)c3c(Cl)cncc3Cl)CC2)c1 | > 5.30
56 | CC(C)n1nc(C(C)(C)C)cc1NC(=O)Nc1ccc(CN2CCN(C(=O)c3c(Cl)cccc3Cl)CC2)cc1F | > 5.30
57 | CCCC(C)(C)C(=O)N1CCN(c2ccc(NC(=O)Nc3cc(C(C)(C)C)nn3-c3ccc(C)cc3)cc2)CC1 | > 5.30
58 | Cn1nc(C(C)(C)C)cc1NC(=O)Nc1ccc(OC2CCN(C(=O)c3cc[nH]c3)CC2)cc1 | > 5.30
59 | Cn1nc(C(C)(C)C)cc1NC(=O)Nc1ccc(OC2CCN(C(=O)c3c[nH]cn3)CC2)cc1 | > 5.30
60 | CCn1nc(C(C)(C)C)cc1NC(=O)Nc1ccc(CN2CCN(C(=O)c3c(Cl)cccc3Cl)CC2)cc1F | > 5.30
61 | Cn1nc(C(C)(C)C)cc1NC(=O)Nc1cc(OC2CCN(C(=O)c3c(F)cccc3F)CC2)cc(C(F)(F)F)c1 | > 5.30
62 | Cn1nc(C(C)(C)C)cc1NC(=O)Nc1cc(OC2CCN(C(=O)c3ccccc3Cl)CC2)cc(C(F)(F)F)c1 | > 5.30
63 | Cn1nc(C(C)(C)C)cc1NC(=O)Nc1cc(F)cc(OC2CCN(C(=O)c3sccc3Cl)CC2)c1 | > 5.30
64 | Cn1nc(C(C)(C)C)cc1NC(=O)Nc1ccc(OC2CCN(C(=O)c3c(F)cccc3Cl)CC2)cc1 | > 5.30
65 | Cn1nc(C(C)(C)C)cc1NC(=O)Nc1ccc(OC2CCN(C(=O)c3ccccc3F)CC2)cc1 | > 5.30
